Calls of active or inactive are those of the source. The calls are words filed in the database; no cut-off is given here.

The results in this text go back to ChEMBL document CHEMBL6182905, “Fluorinated sulfonamide-flavonoid derivatives as novel Keap1-Nrf2 inhibitors: Potent induction of cytoprotective gene HO-1 in vivo” (Eur J Med Chem, 2025).

The target of data set [1] is T1, Nuclear factor erythroid 2-related factor 2 (Mus musculus) (UniProt Q60795).
T1 sequence (whole entry): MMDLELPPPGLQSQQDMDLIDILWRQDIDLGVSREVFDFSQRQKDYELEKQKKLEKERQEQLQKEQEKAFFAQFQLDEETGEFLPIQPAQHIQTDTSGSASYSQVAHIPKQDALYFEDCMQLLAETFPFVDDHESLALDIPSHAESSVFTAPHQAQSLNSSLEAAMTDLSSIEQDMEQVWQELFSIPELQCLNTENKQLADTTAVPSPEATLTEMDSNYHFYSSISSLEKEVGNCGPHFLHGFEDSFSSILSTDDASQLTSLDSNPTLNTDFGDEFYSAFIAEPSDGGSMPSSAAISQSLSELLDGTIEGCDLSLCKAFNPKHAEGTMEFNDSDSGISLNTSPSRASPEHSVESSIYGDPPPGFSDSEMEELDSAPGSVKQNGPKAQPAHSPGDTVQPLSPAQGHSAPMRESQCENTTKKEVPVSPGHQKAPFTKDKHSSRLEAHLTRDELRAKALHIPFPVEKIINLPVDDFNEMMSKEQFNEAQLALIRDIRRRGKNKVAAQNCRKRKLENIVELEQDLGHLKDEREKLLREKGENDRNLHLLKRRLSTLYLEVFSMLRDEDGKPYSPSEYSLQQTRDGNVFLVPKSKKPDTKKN
The data set is described as follows: Activation of Nrf2 in LPS-stimulated mouse AML12 cells assessed as upregulation of HO-1 mRNA expression by measuring fold change at 10 uM incubated for 16 hrs relative to sulforaphane. The following applies: filed as activator. The class given is cell-based.

Data set [2] deals with T1, Nuclear factor erythroid 2-related factor 2 (Mus musculus). The data set is described as follows: Activation of Nrf2 in LPS-stimulated mouse AML12 cells assessed as upregulation of GCLM mRNA expression by measuring fold change at 10 uM incubated for 16 hrs relative to sulforaphane. It is filed as cell-based. To be noted: filed as activator.
The target is the same in data set [3]. In words: Activation of Nrf2 in LPS-stimulated mouse AML12 cells assessed as upregulation of Akr1c1 mRNA expression by measuring fold change at 10 uM incubated for 16 hrs relative to sulforaphane. It is filed as cell-based. To be noted: filed as activator.
The target is the same in data set [4]. In words: Activation of Nrf2 in LPS-stimulated mouse AML12 cells assessed as upregulation of HO-1 mRNA expression incubated for 16 hrs by RT-qPCR analysis. The class given is cell-based. The following applies: filed as activator, dose 0.5-10 µM.
The target is the same in data set [5]. The data set is described as follows: Activation of Nrf2 in LPS-stimulated mouse AML12 cells assessed as upregulation of GCLM mRNA expression incubated for 16 hrs by RT-qPCR analysis. The following applies: filed as activator, dose 0.5-10 µM. It is filed as cell-based. Background: Quantitative PCR measures a nucleic acid by following its amplification.
The target is the same in data set [6]. The data set is described as follows: Activation of Nrf2 in LPS-stimulated mouse AML12 cells assessed as upregulation of Akr1c1 mRNA expression incubated for 16 hrs by RT-qPCR analysis. To be noted: filed as activator, dose 0.5-10 µM. It is filed as cell-based.
Data set [7] shares this target. The data set is described as follows: Activation of Nrf2 in LPS-stimulated mouse AML12 cells assessed as upregulation of Nrf2 protein level incubated for 16 hrs by Western blot analysis. The class given is cell-based. The following applies: filed as activator, dose 0.5-10 µM. On the technique in general: A western blot detects proteins with antibodies after separation by electrophoresis.

Data set [8] shares this target. The data set is described as follows: Activation of Nrf2 in LPS-stimulated mouse AML12 cells assessed as upregulation of GCLM protein level incubated for 16 hrs by Western blot analysis. The class given is cell-based. To be noted: filed as activator, dose 0.5-10 µM.
Data set [9] in a line: Drug concentration in plasma of APAP-induced acute liver injury male C57BL/6 mouse model at 25 mg/kg, ip pre-administered with compound for 1 hr followed by APAP induction and measured after 12 hrs by Mass spectrometric analysis. The class given is ADME, organism-based.
A short description of data set [10]: Drug concentration in liver of APAP-induced acute liver injury male C57BL/6 mouse model at 12.5 mg/kg, ip pre-administered with compound for 1 hr followed by APAP induction and measured after 12 hrs by Mass spectrometric analysis. It is filed as ADME, organism-based. The following applies: read-out: Ct.
In data set [11] the test system is Mus musculus. In words: In vivo induction of Nrf2 nuclear translocation in APAP-induced male C57BL/6 mouse model of acute liver injury assessed as increase in nuclear Nrf2 level at 12.5 to 25 mg/kg, ip measured after 12 hrs by Western blot analysis. It is filed as functional, organism-based. To be noted: dose 12.5-25 mg/kg.
In data set [12] the test system is Mus musculus. In words: Hepatoprotective activity in APAP-induced male C57BL/6 mouse model of acute liver injury assessed as reduction in AST level in liver at 12.5 to 25 mg/kg, ip measured after 12 hrs. The class given is functional, organism-based. The following applies: dose 12.5-25 mg/kg.
Data set [13] deals with Mus musculus. In words: Hepatoprotective activity in APAP-induced male C57BL/6 mouse model of acute liver injury assessed as attenuation of nitric oxide (NO) level in liver at 12.5 to 25 mg/kg, ip measured after 12 hrs. The class given is functional, organism-based. To be noted: dose 12.5-25 mg/kg.
For data set [14], the system named is Mus musculus. In words: Hepatoprotective activity in APAP-induced male C57BL/6 mouse model of acute liver injury assessed as reduction in cell apoptosis in liver at 12.5 to 25 mg/kg, ip measured after 12 hrs by TUNEL assay. It is filed as functional, organism-based. The following applies: dose 12.5-25 mg/kg.
Data set [15] relates to Mus musculus. The data set is described as follows: Anti-inflammatory activity in APAP-induced C57BL/6 mouse model of acute liver injury assessed as reduction in macrophage aggregation in liver at 12.5 to 25 mg/kg, ip measured after 12 hrs by F4/80 staining based analysis. The class given is functional, organism-based. The following applies: dose 12.5-25 mg/kg.
The subject of data set [16] is Mus musculus. In words: Anti-inflammatory activity in APAP-induced C57BL/6 mouse model of acute liver injury assessed as reduction in TNFalpha mRNA level in liver at 12.5 to 25 mg/kg, ip measured after 12 hrs by ELISA. It is filed as functional, organism-based. To be noted: dose 12.5-25 mg/kg. Background: ELISA stands for enzyme-linked immunosorbent assay.
The subject of data set [17] is Mus musculus. The data set is described as follows: Anti-inflammatory activity in APAP-induced C57BL/6 mouse model of acute liver injury assessed as reduction in IL-6 level in serum at 12.5 to 25 mg/kg, ip measured after 12 hrs by ELISA. The class given is functional, organism-based. To be noted: dose 12.5-25 mg/kg.
The nature of data set [18]: Toxicity in C57BL/6J mouse assessed as histopathological change in cardiovascular tissue at 25 mg/kg, ip by H and E staining based analysis. It is filed as organism-based. To be noted: in vivo.
A short description of data set [19]: Toxicity in C57BL/6J mouse assessed as histopathological change in renal tissue at 25 mg/kg, ip by H and E staining based analysis. It is filed as organism-based. The following applies: in vivo.
Data set [20] can be described thus: Cmax in Sprague-Dawley rat at 1 mg/kg, iv. It is filed as ADME, organism-based. The following applies: in vivo.
For data set [21], the system named is Mus musculus. The data set is described as follows: Hepatoprotective activity in APAP-induced Nrf2 knockout male C57BL/6 mouse model of acute liver injury assessed as effect on ALT level in liver at 25 mg/kg, ip preadministered with compound followed by APAP induction and measured after 12 hrs. It is filed as functional, organism-based.
In data set [22] the test system is Mus musculus. In words: Hepatoprotective activity in APAP-induced Nrf2 knockout male C57BL/6 mouse model of acute liver injury assessed as effect on AST level in liver at 25 mg/kg, ip preadministered with compound followed by APAP induction and measured after 12 hrs. It is filed as functional, organism-based.

Take `COc1ccc(-c2cc(=O)c3ccc(NS(=O)(=O)c4ccc(F)cc4)cc3o2)cc1`: the fold change (FC) in data set [1] came out at 3.4; in [2] it was 2.3; in data set [3] it was 1.8. Further, the Activity result in [4] was “Dose-dependent-effect”; in [5], “Dose-dependent-effect”; in data set [6], “Dose-dependent-effect”; in data set [7] it was “Dose-dependent-effect”; in data set [8], “Dose-dependent-effect”; in data set [18], “Non-toxic”. Besides, the Activity entry in [19] was “Non-toxic”; in the data set with Mus musculus [21] it was “No effect”; with Mus musculus [22], “No effect”. For the same molecule, the concentration at 13 h in [9] was 155 ng/mL; in data set [10], 175 ng/g. The result in the data set on Mus musculus [11], in the data set with Mus musculus [12], with Mus musculus [13], in the data set with Mus musculus [14], in the data set on Mus musculus [15] and in the data set with Mus musculus [16] was Active. The outcome in the data set on Mus musculus [17] was Active. Further, the Cmax in data set [20] worked out at 1050 ng/mL.

By Cmax is commonly meant the highest concentration seen after dosing.
